Assay results taken from patent US10035806B2, “Derivatized corroles and metallocorroles and their use as imaging and therapeutic agents” (CALIFORNIA INSTITUTE OF TECHNOLOGY, priority 2015, dated 2018).

Key:
[1] = test system: DU-145, SK-MEL-28, MDA-MB-231, OVCAR-3; test: Uptake of gallium corroles (ImageXpress confocal), cell lines taken together; format: cell-based, human; settings: 30 μM, 37° C., dark
Protocol: The intracellular uptake of gallium corroles was quantified using the ImageXpressultra laser point-scanning confocal microscope (Molecular Devices). The fluorescence image acquisition settings were as previously reported (Lim P, et al. (2012), Chem Res Toxicol 25(2):400-409.). Cells (DU-145, SK-MEL-28, MDA-MB-231, and OVCAR-3) were seeded in 96-well dishes (8×10^3 cells per well in 0.1 mL) and allowed to attach overnight. Complex 1, 2, 3, or 4 was added directly to cell media at 30 μM final concentration or media only control, and incubated for 0.25, 1, 3, or 24 h at 37° C. in the dark under a 5% CO2 atmosphere. Cells were fixed and labeled in situ with WGA-Alexa Fluor 488 conjugate and DAPI to allow for the identification of cell boundary and nucleus, respectively. The quantification of blue (DAPI) fluorescence signals in each sample yielded the total number of cells in that population. Corresponding determination of red (corrole) fluorescence within each cell, corrected for background fluorescence from untreated cells, provided the number of cells containing corroles. For each corrole concentration at various time points, fluorescence data were obtained for 1,000-22,000 individual cells. Data acquisitions and analyses were performed as described (Lim P, et al. (2012), Chem Res Toxicol 25(2):400-409). The percentage of corrole-positive cells and the median fluorescence intensity (median RFU) for each treatment were plotted in a three-axis graph using Microsoft Office Excel 2007 (Microsoft Corporation).
To quantify the kinetics of intracellular uptake and accumulation of each derivative, ImageXpressultra, a laser point-scanning confocal microscope, was used for analyses. […] Cells were incubated at 37° C. in the dark for 0.25, 1, 3, or 24 h. […] Within 15 min, Complex 4 fluorescence was observable in ˜80% of ovarian cancer cells, 97% of breast cancer cells, and >99% of prostate cancer and melanoma cells, whereas up to 3 and 24 h were required to label >80% of cells from all four cancer lines with Complexes 3 and 2, respectively. […]

[2] = test system: DU-145, SK-MEL-28, MDA-MB-231, OVCAR-3; test: MTS assay, all four cell lines taken together; format: cell-based, human; settings: Table 1 comparison, 72 h
Description: Reagents were obtained from the indicated suppliers: HBSS without phenol red and trypsin-EDTA (0.25%), Invitrogen/Gibco; PBS, Mediatech; 4′,6-diamidino-2-phenylindole dihydrochloride (DAPI) and DMSO, Sigma-Aldrich; paraformaldehyde, Electron Microscopy Sciences; WGA, Alexa Fluor 488 conjugate, Invitrogen/Molecular Probes; and ProLong Gold Antifade Mountant with DAPI, Life Technologies. Human Cancer Cell Lines. Four cell lines from the NCI60 cell panel (Shoemaker RH (2006) The NCI60 human tumour cell line anticancer drug screen. Nat Rev Cancer 6(10):813-823) representing four distinct tumor types were used in this study: DU-145, prostate; MDA-MB-231, breast; SK-MEL-28, melanoma; and OVCAR-3, ovarian. […]
At the time of drug treatment, stock solutions of 1-4 were diluted to 10-fold the desired final test concentrations with RPMI medium 1640. […] Following 72 h of exposure at 37° C., cell viability was determined using the MTS assay (CellTiter 96 Aqueous One Cell Proliferation Assay; Promega) according to the manufacturer's instructions. Absorbances were measured using a microplate reader (Synergy 4; Biotek Instruments) at 490 nm. […] Spectrophotometric data were analyzed by sigmoid dose-response, nonlinear regression analysis; the IC50, Emax values, and associated SE were calculated using GraphPad Prism 6 (GraphPad Software). […]

OVCAR-3 = test: MTS assay (cytotoxicity); format: cell-based, human; settings: OVCAR-3 (ovarian), 72 h exposure in the dark, mean of three experiments
Description: (§1) Reagents were obtained from the indicated suppliers: HBSS without phenol red and trypsin-EDTA (0.25%), Invitrogen/Gibco; PBS, Mediatech; 4′,6-diamidino-2-phenylindole dihydrochloride (DAPI) and DMSO, Sigma-Aldrich; paraformaldehyde, Electron Microscopy Sciences; WGA, Alexa Fluor 488 conjugate, Invitrogen/Molecular Probes; and ProLong Gold Antifade Mountant with DAPI, Life Technologies. Human Cancer Cell Lines. Four cell lines from the NCI60 cell panel (Shoemaker RH (2006) The NCI60 human tumour cell line anticancer drug screen. Nat Rev Cancer 6(10):813-823) representing four distinct tumor types were used in this study: DU-145, prostate; MDA-MB-231, breast; SK-MEL-28, melanoma; and OVCAR-3, ovarian. Cells were grown in RPMI 1640 cell culture medium (Mediatech) containing 2 mM L-glutamine, supplemented with 10% FBS (Omega Scientific), and maintained at 37° C. under 5% CO2 in a humidified incubator.
(§2) At the time of drug treatment, stock solutions of 1-4 were diluted to 10-fold the desired final test concentrations with RPMI medium 1640. Aliquots of […] of these diluted solutions were added to the appropriate microtiter wells containing 90 μL of medium, resulting in the required final drug concentrations (eight concentrations per compound, ranging from 0.3 to 600 μM). The final concentration of DMSO in test culture was <1%. […] Following 72 h of exposure at 37° C., cell viability was determined using the MTS assay (CellTiter 96 Aqueous One Cell Proliferation Assay; Promega) according to the manufacturer's instructions. Absorbances were measured using a microplate reader (Synergy 4; Biotek Instruments) at 490 nm. Experiments were performed in triplicate and each dose-response curve represents the mean of three or more independent experiments. Spectrophotometric data were analyzed by sigmoid dose-response, nonlinear regression analysis; the IC50, Emax values, and associated SE were calculated using GraphPad Prism 6 (GraphPad Software).
(§3) The effects of bis-sulfonate, carboxylate, and aminocaproate ring substituents on gallium corrole cytotoxicities were examined using four human cancer cell lines, representing tumors of different origin selected based on previously described sensitivities.

SK-MEL-28 = test: MTS assay (cytotoxicity); format: cell-based, human; settings: SK-MEL-28 (melanoma), 72 h exposure in the dark, mean of three experiments
Description: as §1, §2, §3

MDA-MB-231 = test: MTS assay (cytotoxicity); format: cell-based, human; settings: MDA-MB-231 (breast), 72 h exposure in the dark, mean of three experiments
Description: as §1, §2, §3

DU-145 = test: MTS assay (cytotoxicity); format: cell-based, human; settings: DU-145 (prostate), 72 h exposure in the dark, MTS assay, mean of three experiments
Description: as §1, §2, §3

solubility in water = format: physicochemical

In the case of `O=C(O)CCCCCNc1c(F)c(F)c(C2=C3C=CC4=[N+]3[Ga-]35[n]6c2ccc6C(c2c(F)c(F)c(F)c(F)c2F)=c2ccc([n]23)=C(c2c(F)c(F)c(F)c(F)c2F)c2ccc4[n]25)c(F)c1F` (stereo not shown) [Complex 3], the “time required to label >80% of cells from all four cancer lines” value [1] is reported as “up to 3 h”, the “IC50 lower than Complex 2” value [2] is reported as 10 fold and the IC50 (OVCAR-3) is reported as 12.7 µM. It also gave an IC50 (SK-MEL-28) of 14.4 µM, an IC50 (MDA-MB-231) of 13.7 µM and an IC50 (DU-145) of 17.6 µM. The solubility in water (solubility in water) was “easily solubilized in water”.
